Source: patent US20230074545A1, “TREATMENT OF CANCER WITH CDK12/13 INHIBITORS” (Kinnate Biopharma Inc., priority 2019, published 2023)

Legend:
Test in all cases: Radiometric kinase panel
Format in all cases: biochemical
DYRK2 = biological target: T1, DYRK2 (Homo sapiens, UniProt Q92630)
T1 construct: purchased ProQinase GmbH (Reaction Biology); host or cells: Sf9 insect cells or E. coli (not specified per kinase)
Procedure, shortened: (§1)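 Activity was measured radiometrically from [gamma-33P]-ATP incorporation into substrate. The kinases were recombinant human GST- or His-tagged proteins, full-length or active fragments, expressed in Sf9 or E. coli. Compound in 10% DMSO was added before the enzyme/substrate mix, which started the reaction.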

MAP3K1 = biological target: T2, MAP3K1 (Homo sapiens, UniProt Q13233)
T2 construct: either as full-length or enzymatically active fragments; purchased ProQinase GmbH (Reaction Biology); host or cells: Sf9 insect cells or E. coli (not specified per kinase)
Procedure, shortened: as §1

ABL2 = biological target: T3, ABL2 (Homo sapiens, UniProt P42684)
T3 construct: purchased ProQinase GmbH (Reaction Biology)
Procedure, shortened: as §1

S6K = biological target: T4, S6K (Homo sapiens, UniProt P23443)
T4 construct: either as full-length or enzymatically active fragments; purchased ProQinase GmbH (Reaction Biology); host or cells: Sf9 insect cells or E. coli (not specified per kinase)
Procedure, shortened: as §1

RPS6KA1 = biological target: T5, RPS6KA1 (Homo sapiens, UniProt Q15418)
T5 construct: purchased ProQinase GmbH (Reaction Biology)
Procedure, shortened: as §1

MAP4K4 = biological target: T6, MAP4K4 (Homo sapiens, UniProt O95819)
T6 construct: purchased ProQinase GmbH (Reaction Biology)
Procedure, shortened: as §1

FER = biological target: T7, FER (Homo sapiens, UniProt P16591)
T7 construct: either as full-length or enzymatically active fragments; purchased ProQinase GmbH (Reaction Biology); host or cells: Sf9 insect cells or E. coli
Procedure, shortened: as §1

EPHA5 = biological target: T8, EPHA5 (Homo sapiens, UniProt P54756)
T8 construct: either as full-length or enzymatically active fragments; purchased ProQinase GmbH (Reaction Biology)
Procedure, shortened: as §1

EPHB4 = biological target: T9, EPHB4 (Homo sapiens, UniProt P54760)
T9 construct: either as full-length or enzymatically active fragments; purchased ProQinase GmbH (Reaction Biology)
Procedure, shortened: as §1

p38delta = biological target: T10, p38delta (Homo sapiens, UniProt O15264)
T10 construct: either as full-length or enzymatically active fragments; purchased ProQinase GmbH (Reaction Biology)
Procedure, shortened: as §1

BMPR1B = biological target: T11, BMPR1B (Homo sapiens, UniProt O00238)
T11 construct: either as full-length or enzymatically active fragments; purchased ProQinase GmbH (Reaction Biology)
Procedure, shortened: as §1

RPS6KA4 = biological target: T12, RPS6KA4 (Homo sapiens, UniProt O75676)
T12 construct: either as full-length or enzymatically active fragments; purchased ProQinase GmbH (Reaction Biology)
Procedure, shortened: as §1

JNK2 = biological target: T13, JNK2 (Homo sapiens, UniProt P45984)
T13 construct: either as full-length or enzymatically active fragments; purchased ProQinase GmbH (Reaction Biology)
Procedure, shortened: as §1

STK25 = biological target: T14, STK25 (Homo sapiens, UniProt O00506)
T14 construct: either as full-length or enzymatically active fragments; purchased ProQinase GmbH (Reaction Biology)
Procedure, shortened: as §1

ALK = biological target: T15, ALK (Homo sapiens, UniProt Q9UM73)
T15 construct: either as full-length or enzymatically active fragments; purchased ProQinase GmbH (Reaction Biology)
Procedure, shortened: as §1

S6Kbeta = biological target: T16, S6Kbeta (Homo sapiens, UniProt Q9UBS0)
T16 construct: purchased ProQinase GmbH (Reaction Biology); host or cells: Sf9 insect cells or E. coli (not specified per kinase)
Procedure, shortened: as §1

GRK2 = biological target: T17, GRK2 (Homo sapiens, UniProt P25098)
T17 construct: either as full-length or enzymatically active fragments; purchased ProQinase GmbH (Reaction Biology)
Procedure, shortened: as §1

ACVRL1 = biological target: T18, ACVRL1 (Homo sapiens, UniProt P37023)
T18 construct: either as full-length or enzymatically active fragments; purchased ProQinase GmbH (Reaction Biology)
Procedure, shortened: as §1

PIM1 = biological target: T19, PIM1 (Homo sapiens, UniProt P11309)
T19 construct: either as full-length or enzymatically active fragments; purchased ProQinase GmbH (Reaction Biology)
Procedure, shortened: as §1

ZAP70 = biological target: T20, ZAP70 (Homo sapiens, UniProt P43403)
T20 construct: either as full-length or enzymatically active fragments; purchased ProQinase GmbH (Reaction Biology)
Procedure, shortened: as §1

VRK2 = biological target: T21, VRK2 (Homo sapiens, UniProt Q86Y07)
T21 construct: either as full-length or enzymatically active fragments; purchased ProQinase GmbH (Reaction Biology); host or cells: Sf9 insect cells or E. coli
Procedure, shortened: as §1

MASTL = biological target: T22, MASTL (Homo sapiens, UniProt Q96GX5)
T22 construct: either as full-length or enzymatically active fragments; purchased ProQinase GmbH (Reaction Biology); host or cells: Sf9 insect cells or E. coli (not specified per kinase)
Procedure, shortened: as §1

MKK4 = biological target: T23, MKK4 (Homo sapiens, UniProt P45985)
T23 construct: either as full-length or enzymatically active fragments; purchased ProQinase GmbH (Reaction Biology)
Procedure, shortened: as §1

CDK18/CycY = biological target: T24, CDK18/CycY (Homo sapiens, UniProt Q07002)
T24 construct: either as full-length or enzymatically active fragments; purchased ProQinase GmbH (Reaction Biology)
Procedure, shortened: as §1

TXK = biological target: T25, TXK (Homo sapiens, UniProt P42681)
T25 construct: either as full-length or enzymatically active fragments; purchased ProQinase GmbH (Reaction Biology)
Procedure, shortened: as §1

PRK2 = biological target: T26, PRK2 (Homo sapiens, UniProt Q16513)
T26 construct: either as full-length or enzymatically active fragments; purchased ProQinase GmbH (Reaction Biology)
Procedure, shortened: as §1

T10 sequence (O15264 whole entry, the tested form may be a part): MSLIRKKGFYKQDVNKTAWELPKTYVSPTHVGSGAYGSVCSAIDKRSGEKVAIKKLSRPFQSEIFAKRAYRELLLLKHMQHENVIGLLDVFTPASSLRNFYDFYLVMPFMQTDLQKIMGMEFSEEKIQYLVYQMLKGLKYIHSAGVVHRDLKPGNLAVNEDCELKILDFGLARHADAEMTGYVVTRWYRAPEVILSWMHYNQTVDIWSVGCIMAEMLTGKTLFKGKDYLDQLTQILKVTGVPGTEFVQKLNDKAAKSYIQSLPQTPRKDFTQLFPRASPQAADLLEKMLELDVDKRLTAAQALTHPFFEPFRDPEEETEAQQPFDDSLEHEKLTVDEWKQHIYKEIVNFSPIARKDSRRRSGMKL
T1 sequence (Q92630 whole entry): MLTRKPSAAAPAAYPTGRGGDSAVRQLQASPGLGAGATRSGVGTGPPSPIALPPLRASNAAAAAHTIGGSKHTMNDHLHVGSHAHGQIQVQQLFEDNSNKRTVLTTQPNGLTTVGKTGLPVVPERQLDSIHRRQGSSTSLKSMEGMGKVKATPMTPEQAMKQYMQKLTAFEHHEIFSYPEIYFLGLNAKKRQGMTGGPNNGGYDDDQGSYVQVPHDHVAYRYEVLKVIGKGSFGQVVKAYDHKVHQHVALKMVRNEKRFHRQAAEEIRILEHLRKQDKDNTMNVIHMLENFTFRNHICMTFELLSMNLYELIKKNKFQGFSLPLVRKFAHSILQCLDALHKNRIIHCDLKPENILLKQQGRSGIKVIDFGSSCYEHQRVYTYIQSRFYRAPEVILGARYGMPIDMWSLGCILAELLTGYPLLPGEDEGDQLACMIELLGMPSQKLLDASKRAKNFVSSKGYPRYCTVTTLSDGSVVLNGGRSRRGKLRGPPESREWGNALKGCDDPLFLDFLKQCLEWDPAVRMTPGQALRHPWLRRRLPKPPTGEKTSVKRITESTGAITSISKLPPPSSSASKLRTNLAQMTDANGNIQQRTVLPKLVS
T19 sequence (P11309 whole entry, the tested form may be a part): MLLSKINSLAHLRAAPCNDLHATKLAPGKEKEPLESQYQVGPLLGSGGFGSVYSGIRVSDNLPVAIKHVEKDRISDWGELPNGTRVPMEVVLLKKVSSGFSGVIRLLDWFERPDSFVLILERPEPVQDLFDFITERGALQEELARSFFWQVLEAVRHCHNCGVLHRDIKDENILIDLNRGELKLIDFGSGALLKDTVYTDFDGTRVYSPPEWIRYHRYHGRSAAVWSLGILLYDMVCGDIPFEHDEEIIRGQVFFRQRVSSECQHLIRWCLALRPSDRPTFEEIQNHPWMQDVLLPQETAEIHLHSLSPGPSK
T13 sequence (P45984 whole entry, the tested form may be a part): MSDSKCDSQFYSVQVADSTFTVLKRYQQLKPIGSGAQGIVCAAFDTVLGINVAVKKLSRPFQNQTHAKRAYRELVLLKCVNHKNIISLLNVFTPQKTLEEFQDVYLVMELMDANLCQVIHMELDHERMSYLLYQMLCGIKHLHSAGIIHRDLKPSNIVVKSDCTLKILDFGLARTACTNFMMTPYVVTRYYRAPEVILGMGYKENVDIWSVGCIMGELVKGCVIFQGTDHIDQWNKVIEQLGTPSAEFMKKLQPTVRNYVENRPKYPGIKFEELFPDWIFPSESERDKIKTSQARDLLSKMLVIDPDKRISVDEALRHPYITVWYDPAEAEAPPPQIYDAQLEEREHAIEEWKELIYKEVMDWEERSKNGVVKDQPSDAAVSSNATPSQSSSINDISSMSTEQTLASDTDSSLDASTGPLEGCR
T21 sequence (Q86Y07 whole entry, the tested form may be a part): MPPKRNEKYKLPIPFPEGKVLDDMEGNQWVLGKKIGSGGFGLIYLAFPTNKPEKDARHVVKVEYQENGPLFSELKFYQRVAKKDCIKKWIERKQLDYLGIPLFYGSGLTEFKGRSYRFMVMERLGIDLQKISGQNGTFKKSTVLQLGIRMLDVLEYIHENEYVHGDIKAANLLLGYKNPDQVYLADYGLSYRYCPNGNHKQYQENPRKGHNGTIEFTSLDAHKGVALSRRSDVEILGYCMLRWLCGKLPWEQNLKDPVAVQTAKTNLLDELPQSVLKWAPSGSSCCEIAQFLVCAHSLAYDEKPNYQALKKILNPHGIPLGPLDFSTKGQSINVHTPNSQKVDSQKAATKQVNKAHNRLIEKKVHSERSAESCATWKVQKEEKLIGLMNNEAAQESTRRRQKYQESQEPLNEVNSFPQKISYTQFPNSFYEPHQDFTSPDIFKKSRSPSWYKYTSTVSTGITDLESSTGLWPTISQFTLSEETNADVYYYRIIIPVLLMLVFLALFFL
T14 sequence (O00506 whole entry, the tested form may be a part): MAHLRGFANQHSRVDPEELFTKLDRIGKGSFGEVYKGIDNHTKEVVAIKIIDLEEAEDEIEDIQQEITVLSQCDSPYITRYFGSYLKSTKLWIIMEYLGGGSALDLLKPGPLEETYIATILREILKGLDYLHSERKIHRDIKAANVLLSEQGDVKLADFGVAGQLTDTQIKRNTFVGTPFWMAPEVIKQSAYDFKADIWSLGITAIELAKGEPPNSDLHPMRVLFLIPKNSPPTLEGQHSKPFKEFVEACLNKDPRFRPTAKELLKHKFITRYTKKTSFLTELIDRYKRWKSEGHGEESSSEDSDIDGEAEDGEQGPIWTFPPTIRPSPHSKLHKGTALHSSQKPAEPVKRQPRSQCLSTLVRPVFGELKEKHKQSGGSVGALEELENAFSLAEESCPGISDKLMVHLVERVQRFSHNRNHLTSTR
T22 sequence (Q96GX5 whole entry, the tested form may be a part): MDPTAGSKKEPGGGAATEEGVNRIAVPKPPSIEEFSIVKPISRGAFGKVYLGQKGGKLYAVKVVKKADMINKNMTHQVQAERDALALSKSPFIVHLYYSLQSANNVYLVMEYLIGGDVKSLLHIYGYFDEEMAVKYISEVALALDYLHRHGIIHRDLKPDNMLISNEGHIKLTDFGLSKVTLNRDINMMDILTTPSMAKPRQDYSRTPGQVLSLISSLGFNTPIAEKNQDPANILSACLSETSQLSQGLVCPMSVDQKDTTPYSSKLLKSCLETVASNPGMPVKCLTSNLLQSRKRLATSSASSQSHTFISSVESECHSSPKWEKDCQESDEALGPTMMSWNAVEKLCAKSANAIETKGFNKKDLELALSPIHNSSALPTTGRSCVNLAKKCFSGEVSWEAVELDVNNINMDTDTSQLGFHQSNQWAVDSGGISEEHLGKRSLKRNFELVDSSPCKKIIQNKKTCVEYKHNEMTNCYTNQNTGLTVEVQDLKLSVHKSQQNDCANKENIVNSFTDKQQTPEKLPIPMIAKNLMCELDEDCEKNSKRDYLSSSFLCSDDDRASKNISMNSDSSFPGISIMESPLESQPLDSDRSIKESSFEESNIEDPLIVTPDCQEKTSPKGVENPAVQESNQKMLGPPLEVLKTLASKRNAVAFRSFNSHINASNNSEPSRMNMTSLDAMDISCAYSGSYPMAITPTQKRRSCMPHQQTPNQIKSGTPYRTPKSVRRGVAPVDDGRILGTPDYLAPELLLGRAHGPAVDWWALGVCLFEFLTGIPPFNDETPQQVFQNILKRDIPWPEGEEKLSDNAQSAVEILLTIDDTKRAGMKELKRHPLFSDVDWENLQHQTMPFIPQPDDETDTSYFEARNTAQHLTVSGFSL
T7 sequence (P16591 whole entry, the tested form may be a part): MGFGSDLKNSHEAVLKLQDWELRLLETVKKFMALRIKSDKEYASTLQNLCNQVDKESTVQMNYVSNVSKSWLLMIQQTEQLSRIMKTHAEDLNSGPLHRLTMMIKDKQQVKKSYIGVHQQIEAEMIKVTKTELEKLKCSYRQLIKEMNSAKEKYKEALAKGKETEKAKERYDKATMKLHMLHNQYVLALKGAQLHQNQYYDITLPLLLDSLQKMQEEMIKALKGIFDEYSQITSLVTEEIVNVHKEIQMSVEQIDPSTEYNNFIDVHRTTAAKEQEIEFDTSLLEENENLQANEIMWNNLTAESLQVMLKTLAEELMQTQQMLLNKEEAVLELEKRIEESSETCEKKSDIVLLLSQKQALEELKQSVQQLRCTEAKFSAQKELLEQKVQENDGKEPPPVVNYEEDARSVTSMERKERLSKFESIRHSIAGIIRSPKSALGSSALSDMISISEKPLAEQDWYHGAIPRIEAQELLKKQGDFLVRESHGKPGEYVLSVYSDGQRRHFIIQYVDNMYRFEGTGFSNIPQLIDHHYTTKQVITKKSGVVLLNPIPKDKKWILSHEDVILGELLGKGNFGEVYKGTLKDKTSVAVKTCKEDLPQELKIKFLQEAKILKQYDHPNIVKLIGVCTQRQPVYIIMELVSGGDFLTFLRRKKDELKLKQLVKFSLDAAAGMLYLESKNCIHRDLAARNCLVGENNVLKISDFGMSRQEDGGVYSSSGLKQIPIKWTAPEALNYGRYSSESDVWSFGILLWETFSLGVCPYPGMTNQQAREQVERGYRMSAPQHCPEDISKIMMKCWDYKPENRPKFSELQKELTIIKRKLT
T16 sequence (Q9UBS0 whole entry): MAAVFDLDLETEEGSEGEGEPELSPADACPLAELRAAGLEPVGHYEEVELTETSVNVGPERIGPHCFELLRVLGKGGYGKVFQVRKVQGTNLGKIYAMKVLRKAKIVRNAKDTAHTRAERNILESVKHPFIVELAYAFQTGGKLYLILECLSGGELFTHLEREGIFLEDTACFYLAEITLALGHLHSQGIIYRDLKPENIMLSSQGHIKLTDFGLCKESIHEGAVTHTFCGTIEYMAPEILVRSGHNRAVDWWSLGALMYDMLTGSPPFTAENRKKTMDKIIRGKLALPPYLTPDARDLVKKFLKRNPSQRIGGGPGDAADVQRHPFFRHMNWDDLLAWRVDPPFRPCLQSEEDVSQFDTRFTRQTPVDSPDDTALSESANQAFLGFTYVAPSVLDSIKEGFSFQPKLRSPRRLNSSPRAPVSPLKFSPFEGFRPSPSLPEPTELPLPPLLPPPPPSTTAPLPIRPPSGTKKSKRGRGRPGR

How did the inhibition at 1 µM (DYRK2) turn out when `C=CC(=O)Nc1ccc(C(=O)N2CC[C@@H](Nc3ncc(C#N)cn3)C2)cc1` [Compound 4, (R)-N-(4-(3-((5-cyanopyrimidin-2-yl)amino)pyrrolidine-1-carbonyl)phenyl)acrylamide] was run?
Its inhibition at 1 µM is 1%.

And the inhibition at 1 µM (MAP3K1)?
The inhibition at 1 µM was 9%.

What about the inhibition at 1 µM (ABL2) of the same compound?
Its inhibition at 1 µM is -1%.

What about the inhibition at 1 µM (S6K) of the same compound?
Its inhibition at 1 µM is 9%.

And the inhibition at 1 µM (RPS6KA1)?
Its inhibition at 1 µM is -1%.

And the inhibition at 1 µM (MAP4K4)?
Its inhibition at 1 µM is 0%.

And the inhibition at 1 µM (FER)?
The inhibition at 1 µM was 15%.

And the inhibition at 1 µM (EPHA5)?
Its inhibition at 1 µM is -8%.

What about the inhibition at 1 µM (EPHB4) of the same compound?
Its inhibition at 1 µM is -4%.

And the inhibition at 1 µM (p38delta)?
The inhibition at 1 µM was 5%.

And the inhibition at 1 µM (BMPR1B)?
Its inhibition at 1 µM is 6%.

And the inhibition at 1 µM (RPS6KA4)?
Its inhibition at 1 µM is 5%.

What about the inhibition at 1 µM (JNK2) of the same compound?
Its inhibition at 1 µM is 6%.

And the inhibition at 1 µM (STK25)?
The inhibition at 1 µM was 7%.

And the inhibition at 1 µM (ALK)?
The inhibition at 1 µM was 8%.

And the inhibition at 1 µM (S6Kbeta)?
The inhibition at 1 µM was 1%.

What about the inhibition at 1 µM (GRK2) of the same compound?
Its inhibition at 1 µM is 7%.

What about the inhibition at 1 µM (ACVRL1) of the same compound?
Its inhibition at 1 µM is 3%.

What about the inhibition at 1 µM (PIM1) of the same compound?
Its inhibition at 1 µM is 3%.

And the inhibition at 1 µM (ZAP70)?
Its inhibition at 1 µM is -6%.

And the inhibition at 1 µM (VRK2)?
Its inhibition at 1 µM is -16%.

What about the inhibition at 1 µM (MASTL) of the same compound?
Its inhibition at 1 µM is 11%.

And the inhibition at 1 µM (MKK4)?
Its inhibition at 1 µM is 4%.

And the inhibition at 1 µM (CDK18/CycY)?
The inhibition at 1 µM was 20%.

And the inhibition at 1 µM (TXK)?
The inhibition at 1 µM was 6%.

And the inhibition at 1 µM (PRK2)?
The inhibition at 1 µM was 2%.
